Results reported in patent publication EP0911330B1, “1-(4-Arylpiperazine-1-y1)-3-(2-oxopyrrolidin/piperidin-1-y1) propanes as therapeutic agents for hypertension, ischemia, cardiovascular and other adrenergic receptors related disorders” (Council of Scientific & Industrial Research, priority 1997, dated 1999).

What was measured:
cat [1] = test: Effect on blood pressure and adrenaline vasopressor response in anaesthetized cat, i.v. (Table 2); format: in vivo; details: for inhibition at 2 µmol/kg / inhibition in vivo at 2 µmol/kg / inhibition at 10 µmol/kg / inhibition in vivo at 10 µmol/kg: Felis catus, iv; for inhibition at 2 µmol/kg / inhibition at 10 µmol/kg: read-out: Adrenaline vasopressure response % inhibition; for inhibition in vivo at 2 µmol/kg / inhibition in vivo at 10 µmol/kg: read-out: B.P. fall %
Description: • (a) Cats (2.6-4.0 kg) of either sex anaesthetized with pentobarbitone sodium (40 mg/kg i.v.) and showing basal mean arterial blood pressure below 150 mm (Hg) were categorised as normotensive and above 150 mm Hg as hypertensive. Arterial blood pressure (BP) was recorded from one of the carotid artery through a stathum P23 DC pressure transducer and 7P1 low level DC preamplifier on a Grass Model P7 Polygraph, Signals from 7P1 preamplifier were used to trigger 7P4 Tachograph preamplifier for recording the heart rate (HR). Right femoral vein and Trachea were cannulated for intravenous injections and artificial ventilation respectively. Control responses to intravenous injection of noradrenaline (2-4 ug); acetyl choline (1-2 ug); histamine ([…]) and isoprenaline (1-2 ug) were taken before and after the administration of test doses of each compounds.

[2] = tested on: Langendorff perfused rat heart; test: Antiischemic activity, Langendorff perfused rat heart, brief (16 min.) ischemic insult, compound given at reperfusion (Table 3); details: 0.001 ug/ml at reperfusion
Description: Table 3: Compound administered at the time of reperfusion at a dose of 0.001 ug/ml on brief period (16 min.) of ischemic insult.
(§1) The rats were killed by decapitation, heart were rapidly excised and placed in ice-cold HEPES tyrode buffer. Then isolated hearts were perfused retrogradely through coronary arteries using the Langendorff technique. The perfusion buffer consisted (in mM) NaCl 137, KCl 5.4, CaCl2 1.8, MgCl2 1.0, glucose 11.2 and HEPES 3.0. The buffer (pH 7.4) was continuously gassed with oxygen and maintained at 37°C. Coronary flow rate was maintained at 10 ml/min. The heart contracted spontaneously.
(§2) The perfused heart was allowed to equilibrate for 30 min. before initiation of any insult protocol. The text compounds were given at the time of reperfusion. Some of the compounds were dissolved in ethanol. Final concentration of ethanol in the perfusion buffer was 0.0001% and had no effect of its own on the parameter used. • (a) For brief period of ischemic insult (Hideo et al.). Pathophysiology and pathogenesis of stunned myocardium. J. Clin. Invest., 79, 950-961, 1987). Ischemia was initiated by stopping the flow for 16 min. followed by 30 min. reperfusion period. The durations were decided on the initial pilot experiments leading to 50% recovery of function. • (b) For prolong period of ischemic insult (Becker, L.C. & Ambrosio, G. Myocardial consequences of reperfusion. Prog. Cardiovas. Dis., 30, 23-44, 1987). Ischemia was initiated by stopping the flow for […]. followed by 30 min. reperfusion.

cat [3] = test: Comparative antihypertensive effect with clinically used antihypertensive drugs in cat; format: in vivo; details: 2 uMol/kg i.v.
[4] = tested on: Langendorff perfused rat heart preparation; test: Cardioprotective activity, Langendorff perfused rat heart, prolonged ischemic insult, compound given at reperfusion; details: 10^-6M, ischemic insult 45 min.
Description: Further, in Langendorff perfused rat heart preparation subjected to even upto 90 min. global ischemia, the compound at 0.001 ug/ml conc. given at the time of reperfusion revived normal rhythmic contraction started within 2 min. (Table 1) and incidence of reperfusion induced arrhythmia were abolished. Table 1: Compound administered at the time of reperfusion at the dose of 0.001 ug/ml on prolong period (90 min.) of ischemic insult.
as §1, §2

O=C1CCCCN1CCCN1CCN(c2ccccn2)CC1 [2-Pyridyl, n=2, 1-[4-(2-pyridyl)piperazin-1-yl]-3-[2-oxopiperidin-1-yl] propane]
inhibition at 2 µmol/kg (cat [1]; dose 2.0 umol/kg i.v.): 28%
inhibition in vivo at 2 µmol/kg (cat [1]; dose 2.0 umol/kg i.v.): 34%
inhibition at 10 µmol/kg (cat [1]; dose 10.0 umol/kg i.v.): -20 to 0%
inhibition in vivo at 10 µmol/kg (cat [1]; dose 10.0 umol/kg i.v.): 42%
Dur. (cat [1]; dose 2.0 umol/kg i.v.): 53 min
Dur. (cat [1]; dose 10.0 umol/kg i.v.): >71 min
Onset [2]: 2.0 min
Percentage recovery 15 min. [2]: 47.60 Percentage
Percentage recovery 30 min. [2]: 71.40 Percentage

CCc1ccccc1N1CCN(CCCN2CCCC2=O)CC1 [C6H4-2-C2H5, n=1, 1-[4-(2-ethylphenyl)piperazin-1-yl]-3-[2-oxopyrrolidin-1-yl] propane]
inhibition at 2 µmol/kg (cat [1]; dose 2.0 umol/kg i.v.): -20 to 0%
inhibition in vivo at 2 µmol/kg (cat [1]; dose 2.0 umol/kg i.v.): 13%
inhibition in vivo at 10 µmol/kg (cat [1]; dose 10.0 umol/kg i.v.): 62%
Dur. (cat [1]; dose 2.0 umol/kg i.v.): 10 min
Dur. (cat [1]; dose 10.0 umol/kg i.v.): 10 min
Onset [2]: 3.0 min

O=C1CCCCN1CCCN1CCN(c2cccc(C(F)(F)F)c2)CC1 [C6H4-3-CF3, n=2, 1-[4-(3-trifluoromethylphenyl)piperazin-1-yl]-3-[2-oxopiperidin-1-yl]propane]
inhibition at 2 µmol/kg (cat [1]; dose 2.0 umol/kg i.v.): -20 to 0%
inhibition at 10 µmol/kg (cat [1]; dose 10.0 umol/kg i.v.): 25%
inhibition in vivo at 10 µmol/kg (cat [1]; dose 10.0 umol/kg i.v.): 10%
Dur. (cat [1]; dose 10.0 umol/kg i.v.): Tr

O=C1CCCN1CCCN1CCN(c2cccc(Cl)c2)CC1 [C6H4-3-Cl, n=1, 1-[4-(3-chlorophenyl)piperazin-1-yl]-3-[2-oxopyrrolidin-1-yl]propane]
inhibition at 2 µmol/kg (cat [1]; dose 2.0 umol/kg i.v.): -20 to 0%
inhibition in vivo at 2 µmol/kg (cat [1]; dose 2.0 umol/kg i.v.): 25%
Dur. (cat [1]; dose 2.0 umol/kg i.v.): 20 min
Dur. (cat [1]; dose 10.0 umol/kg i.v.): >57 min
Onset [2]: 1.0 min

O=C1CCCCN1CCCN1CCN(c2cccc(Cl)c2)CC1 [C6H4-3-Cl, n=2, 1-[4-(3-chlorophenyl)piperazin-1-yl]-3-[2-oxopiperidin-1-yl] propane]
inhibition at 2 µmol/kg (cat [1]; dose 2.0 umol/kg i.v.): 33%
inhibition in vivo at 2 µmol/kg (cat [1]; dose 2.0 umol/kg i.v.): 27%
inhibition at 10 µmol/kg (cat [1]; dose 10.0 umol/kg i.v.): 10%
inhibition in vivo at 10 µmol/kg (cat [1]; dose 10.0 umol/kg i.v.): 44%
Dur. (cat [1]; dose 2.0 umol/kg i.v.): 9 min
Dur. (cat [1]; dose 10.0 umol/kg i.v.): 62 min
Onset [2]: 3.0 min
Percentage recovery 15 min. [2]: 31.50 Percentage
Percentage recovery 30 min. [2]: 39.40 Percentage

O=C1CCCN1CCCN1CCN(c2cccc(F)c2)CC1 [C6H4-3-F, n=1, 1-[4-(3-fluorophenyl)piperazin-1-yl]-3-[2-oxopyrrolidin-1-yl]propane]
inhibition at 2 µmol/kg (cat [1]; dose 2.0 umol/kg i.v.): 80%
inhibition in vivo at 2 µmol/kg (cat [1]; dose 2.0 umol/kg i.v.): 18%
inhibition at 10 µmol/kg (cat [1]; dose 10.0 umol/kg i.v.): > 100%
inhibition in vivo at 10 µmol/kg (cat [1]; dose 10.0 umol/kg i.v.): 32%
Dur. (cat [1]; dose 2.0 umol/kg i.v.): 3 min
Dur. (cat [1]; dose 10.0 umol/kg i.v.): 30 min
Onset [2]: 2.0 min

CCc1ccc(N2CCN(CCCN3CCCC3=O)CC2)cc1 [C6H4-4-C2H5, n=1, 1-[4-(4-ethylphenyl)piperazin-1-yl]-3-[2-oxopyrrolidin-1-yl]propane]
inhibition in vivo at 2 µmol/kg (cat [1]; dose 2.0 umol/kg i.v.): 9%
inhibition in vivo at 10 µmol/kg (cat [1]; dose 10.0 umol/kg i.v.): 20%
Dur. (cat [1]; dose 2.0 umol/kg i.v.): Tr
Dur. (cat [1]; dose 10.0 umol/kg i.v.): 14 min
Onset [2]: 2.0 min

O=C1CCCN1CCCN1CCN(c2ccc(Cl)cc2)CC1 [C6H4-4-Cl, n=1, 1-[4-(4-chlorophenyl)piperazin-1-yl]-3-[2-oxopyrrolidin-1-yl]propane]
Onset [2]: 1.0 min

O=C1CCCCN1CCCN1CCN(c2ccc(Cl)cc2)CC1 [C6H4-4-Cl, n=2, 1-[4-(4-chlorophenyl)piperazin-1-yl]-3-[2-oxopiperidin-1-yl] propane]
inhibition at 2 µmol/kg (cat [1]; dose 2.0 umol/kg i.v.): 20%
inhibition in vivo at 2 µmol/kg (cat [1]; dose 2.0 umol/kg i.v.): 24%
inhibition at 10 µmol/kg (cat [1]; dose 10.0 umol/kg i.v.): 25%
inhibition in vivo at 10 µmol/kg (cat [1]; dose 10.0 umol/kg i.v.): 46%
Dur. (cat [1]; dose 2.0 umol/kg i.v.): 20 min
Dur. (cat [1]; dose 10.0 umol/kg i.v.): 25 min

O=C1CCCCN1CCCN1CCN(c2ccc(F)cc2)CC1 [C6H4-4-F, n=2, 1-[4-(4-fluorophenyl)piperazin-1-yl]-3-[2-oxopiperidin-1-yl] propane]
inhibition at 2 µmol/kg (cat [1]; dose 2.0 umol/kg i.v.): 46%
inhibition in vivo at 2 µmol/kg (cat [1]; dose 2.0 umol/kg i.v.): 23%
inhibition at 10 µmol/kg (cat [1]; dose 10.0 umol/kg i.v.): > 100%
inhibition in vivo at 10 µmol/kg (cat [1]; dose 10.0 umol/kg i.v.): 33%
Dur. (cat [1]; dose 2.0 umol/kg i.v.): 40 min
Dur. (cat [1]; dose 10.0 umol/kg i.v.): >84 min

C[C@H](CS)C(=O)N1CCC[C@H]1C(=O)O [Captopril, reference compound]
B.P. fall (cat [3]): 14%
Dur. (cat [3]): 28 min

COC(=O)C1=C(C)NC(C)=C(C(=O)OC)C1c1ccccc1[N+](=O)[O-] [Nifedipine, reference compound]
Onset [4]: 2.5 min
